Measurements: paper PMC3098207 (Malaria Journal, 2011)
Where two headings read alike, the source gives them in different places.

Tests used:
[1] = Population pharmacokinetics of oral AS and its metabolite DHA in pregnant and non-pregnant women (NONMEM parent-metabolite model); assay type: in vivo, human
Excerpt: Women presenting for prenatal care at the clinic were screened for study eligibility if they were between 18 and 40 years of age and at less than 22 weeks gestation, determined by last menstrual period. Women confirmed by ultrasound to be between 8 to 21 weeks gestation (inclusive) were invited to be participants in the study. Women were asked to return between 22 to 26 weeks gestation for screening and enrollment; women not enrolled at 22 to 26 weeks were screened again at 32 to 36 weeks gestation. A cohort of non-pregnant female controls was also enrolled. At the time of enrollment, both the pregnant and non-pregnant subjects had asymptomatic Plasmodium falciparum parasitaemia, with a parasite density between 200 and 300,000 parasite/μL, were HIV seronegative, and were without anaemia (haematocrit >30%) or other major medical problems (e.g. chronic hypertension, diabetes, etc.). Plasmodium falciparum parasite density was assessed though Giemsa staining of thick and thin blood films; slide-positive infections were later PCR-confirmed using DNA extracted from dried blood spots [8].
Blood sampling schedule and sample handling were uniformly applied for pregnant, postpartum, and control subjects. Blood samples were collected in pre-chilled tubes containing potassium oxalate/sodium fluoride. Following collection, tubes were placed on wet ice; within 5 minutes of collection, samples were centrifuged. Immediately following centrifugation, plasma was removed from the cells and transferred into cryovials. The plasma samples were transferred to liquid nitrogen until they could be frozen at or below -80°C in a laboratory freezer; samples were later shipped on dry ice to the Clinical Pharmacokinetics Laboratory at the College of Pharmacy, University of Iowa, where they were stored at -80°C until drug analysis was performed.
The reconstituted extracts were chromatographed isocratically. Mass spectroscopy in positive ion mode was used to detect and quantify the compounds.
Nonlinear mixed effects model building was conducted using NONMEM software version 7 (ICON Development Solutions, Ellicott City, MD) [10] implemented on a Windows XP operating system (Microsoft Corporation, Seattle, WA) with a G95 Fortran compiler (Free Software Foundation, Boston, MA). Monte Carlo importance sampling expectation maximization with interaction (IMP INTER) estimation method was used to fit models. Pdx-Pop 4.0 (ICON Development Solutions, Ellicott City, MD) and Xpose version 4.1.0 (Uppsala University, Uppsala, Sweden) [11] were used in processing NONMEM 7 output. Plots were generated with TIBCO Spotfire S+ version 8.1 (TIBCO Software Inc., Palo Alto, CA) and R version 2.10.0 (Free Software Foundation, Boston, MA).
Simultaneous models were implemented using ADVAN 5.

[2] = free acid form of AS; cited from earlier work
[3] = weak acid; cited from earlier work
[4] = parameters: method as in Teja-Isavadharm et al 30; conditions: oral AS, non-pregnant patients with falciparum malaria, non-compartmental, range 0.70 - 2.70 L/kg; ref Teja-Isavadharm et al 30; cited from earlier work
[5] = parameters: method as in Newton et al 31; conditions: oral AS, acute falciparum malaria patients, 95% CI 1.02 - 1.64; ref Newton et al 31; cited from earlier work
[6] = parameters: method as in McGready et al 5; conditions: pregnant women (2nd or 3rd trimester), adjusted for median weight 50 kg, ref McGready et al 5, cited from earlier work
[7] = interindividual variability, final model

## C[C@H]1[C@H](OC(=O)CCC(=O)O)O[C@@H]2O[C@@]3(C)CC[C@H]4[C@H](C)CC[C@@H]1[C@@]24OO3 [AS, artesunate]
[1]; female, human, in vivo
  IIV - V2/F, variance (%CV), estimate: 0.604 (77.7)
  IIV - V2/F, variance, bootstrap mean (95% CI): 0.568 (0.253-0.942)
[1]; female, human, in vivo, po, 200 mg, AS elimination half-life
  half-life: ~9.1 min
[1]; human, in vivo, po, 200 mg
  CL/F apparent clearance of AS, bootstrap mean (95% CI): 904 (788-1045) L/h
  CL/F: apparent clearance of AS, estimate: 895 L/h
[2]
  Solubility of the free acid form: 168.2 µg/mL
[3]
  pKa: 4.6

## C[C@H]1[C@@H](O)O[C@@H]2O[C@@]3(C)CC[C@H]4[C@H](C)CC[C@@H]1[C@@]24OO3 [DHA, dihydroartemisinin]
[4]
  DHA volume of distribution: 1.33 L/kg
[1]; additive model for log-transformed plasma concentrations, 1000 bootstrap runs
  RV - variance (residual variability), bootstrap mean (95% CI): 0.174 (0.129-0.226)
[1]; additive model for log-transformed plasma concentrations, final model
  RV - variance (residual variability), estimate: 0.174
[1]; after 200 mg oral AS, 1000 bootstrap runs, value without the pregnancy covariate (non-pregnant)
  CLM/F apparent clearance of DHA, bootstrap mean (95% CI): 64.2 (55.1-75.2) L/h
[1]; after 200 mg oral AS, current analysis
  DHA volume of distribution adjusted for the median weight of the pregnancy and control groups: 1.58 L/kg
[1]; after 200 mg oral AS, final model NONMEM estimate, value without the pregnancy covariate (non-pregnant)
  CLM/F: apparent clearance of DHA, estimate: 64.0 L/h
[1]; female, human, plasma, po, 200 mg, after 200 mg oral AS, 1000 bootstrap runs, read-out: V3/F apparent volume of distribution of DHA, bootstrap mean (95% CI)
  Vd/F: 92.1 L
[1]; female, human, plasma, po, 200 mg, after 200 mg oral AS, final model NONMEM estimate, read-out: V3/F: apparent volume of distribution of DHA, estimate
  Vd/F: 91.4 L
[1]; female, human, plasma, po, 200 mg, after 200 mg oral AS, non-pregnant, read-out: DHA elimination half-life, non-pregnant subjects
  half-life: 59 min
[1]; female, human, plasma, po, 200 mg, after 200 mg oral AS, pregnant, read-out: DHA elimination half-life, pregnant subjects
  half-life: 45 min
[1]; interindividual variability, 1000 bootstrap runs
  IIV - CLM/F, variance, bootstrap mean (95% CI): 0.0711 (0.031-0.113)
[1]; [7]
  IIV - CLM/F, variance (%CV), estimate: 0.0802 (28.3)
  IIV - V3/F, variance (%CV), estimate: 0.0790 (28.1)
[1]; pregnant vs non-pregnant women, 1000 bootstrap runs
  PREG on CLM/F, bootstrap mean (95% CI): 0.427 (0.197-0.723)
[1]; pregnant vs non-pregnant women, final model NONMEM estimate
  PREG on CLM/F: factor of proportional increase in CLM/F associated with pregnancy, estimate: 0.423
[1]; pregnant vs non-pregnant, significant (p < 0.05) only in first forward addition step, not retained in final model
  Pregnancy-associated trend towards increased DHA volume of distribution: approximately 37%
[1]; pregnant, after 200 mg oral AS
  DHA clearance in pregnant patients, estimate of the present analysis: 91 L/h
[5]
  DHA volume of distribution: 1.33 L/kg
[6]; oral AS 4 mg/kg/day for three days with atovaquone and proguanil, 95% CI 60 - 117 L/h
  Oral DHA clearance: 88.5 L/h
[6]; oral AS 4 mg/kg/day, 95% CI 57 - 406 L
  DHA volume of distribution: 231.5 L
